Assay results: patent publication US20060235020A1, “Process for preparing salts of 4-[[5-[(cyclopropylamino)carbonyl]-2-methylphenyl]amino]-5-methyl-N-propylpyrrolo[2,1-f][1,2,4]triazine-6-carboxamide and novel stable forms produced therein” (priority 2005, published 2006)
Read-outs that look alike come from different tables or passages of the source.

How the values were obtained:
[1] = Procedure: Moisture sorption isotherms were collected in a VTI SGA-100 Symmetric Vapor Analyzer using approximately 10 mg of sample. The sample was dried at 60° C. until the loss rate of 0.0005 wt %/min was obtained for 10 minutes. The sample was tested at 25° C. (for free base 1 and N-1 HCl salt) or 30° C. (for N-4 HCl salt) and 3 or 4, 5, 15, 25, 35, 45, 50, 65, 75, 85, and 95% RH. Equilibration at each RH was reached when the rate of 0.0003 wt %/min for 35 minutes was achieved or a maximum of 600 minutes.
[2] = Stability of the crystals in the solid state; type: physicochemical; settings: isolated solid
[3] = slurries in THF, acetonitrile, acetone and DMF/acetone at room temperature

Q: For CCCNC(=O)c1cn2ncnc(Nc3cc(C(=O)NC4CC4)ccc3C)c2c1C.Cl [Form N-1 hydrochloride salt, hydrochloric acid salt of 4-[[5-[(cyclopropylamino)carbonyl]-2-methylphenyl]amino]-5-methyl-N-propylpyrrolo[2,1-f][1,2,4]triazine-6-carboxamide], which “hygroscopicity / water uptake (moisture-sorption isotherm)” value (shortened to “hygroscopicity / water uptake”) ([1]; about 25 to about 75% RH at 25° C.) is on record?
A: Its value is “non-hygroscopic”.

Q: What about the “hygroscopicity / water uptake” value ([1]; about 25 to about 75% RH at 25° C., listed as Form N-1 crystals of the hydrochloric acid salt of free base I) of the same molecule?
A: The value was “negligible water uptake”.

Q: What about the “stability in the solid state form” value [2] of the same molecule?
A: The value was “remain stable in the solid state form”.

Q: What about the “relative stability of the crystal form in slurries” value ([3]; listed as Form N-1) of the same molecule?
A: Its value is “convert to Form N-4”.

Q: With CCCNC(=O)c1cn2ncnc(Nc3cc(C(=O)NC4CC4)ccc3C)c2c1C.Cl [Form N-4 salt, hydrochloric acid salt of 4-[[5-[(cyclopropylamino)carbonyl]-2-methylphenyl]amino]-5-methyl-N-propylpyrrolo[2,1-f][1,2,4]triazine-6-carboxamide] as the molecule, how does the “hygroscopicity / water uptake” value ([1]; about 25 to about 75% RH at 30° C.) read?
A: The value was “non-hygroscopic”.

Q: What about the “hygroscopicity / water uptake” value ([1]; about 25 to about 75% RH at 30° C., listed as Form N-4 crystals of free base I) of the same molecule?
A: The value was “negligible water uptake”.

Q: What about the “relative stability of the crystal form in slurries” value ([3]; listed as Form N-4) of the same molecule?
A: Its value is “stable form at room temperature”.
